Measured values: paper PMC6642140, “Boosting NAD^+ with a small molecule that activates NAMPT” (Nature Communications, 2019)

How the values were obtained:
Assay type in all cases: biochemical
[1] = biological target: T1, NAMPT (nicotinamide phosphoribosyltransferase) (Homo sapiens, UniProt P43490); assay: NMN production LC-MS/MS assay with […] NAD+ (feedback inhibition)
T1 construct: recombinant, N-terminal His tag removed with thrombin

[2] = biological target: T1, NAMPT (nicotinamide phosphoribosyltransferase); assay: LC-MS/MS of the reversible reaction; suppresses pHisNAMPT in western blot and blunts P3 production
[3] = biological target: T1, NAMPT (nicotinamide phosphoribosyltransferase); assay: dose-dependent protein thermal shift and stimulation of NMN production
[4] = biological target: T1, NAMPT (nicotinamide phosphoribosyltransferase); assay: NMN production fluorescence assay at […] compound (slight inhibition)
[5] = biological target: T1, NAMPT (nicotinamide phosphoribosyltransferase); assay: spin desalting column with LC-MS detection of bound compound; EC50 from NMN production activation assay
Source text: spin desalting column with LC-MS detection of bound compound; EC50 from NMN production activation assay on NAMPT (nicotinamide phosphoribosyltransferase) | When NAMPT and SBI-797812 were mixed and applied to the column, SBI-797812 was detected in the column eluent

T1 sequence (P43490 whole entry): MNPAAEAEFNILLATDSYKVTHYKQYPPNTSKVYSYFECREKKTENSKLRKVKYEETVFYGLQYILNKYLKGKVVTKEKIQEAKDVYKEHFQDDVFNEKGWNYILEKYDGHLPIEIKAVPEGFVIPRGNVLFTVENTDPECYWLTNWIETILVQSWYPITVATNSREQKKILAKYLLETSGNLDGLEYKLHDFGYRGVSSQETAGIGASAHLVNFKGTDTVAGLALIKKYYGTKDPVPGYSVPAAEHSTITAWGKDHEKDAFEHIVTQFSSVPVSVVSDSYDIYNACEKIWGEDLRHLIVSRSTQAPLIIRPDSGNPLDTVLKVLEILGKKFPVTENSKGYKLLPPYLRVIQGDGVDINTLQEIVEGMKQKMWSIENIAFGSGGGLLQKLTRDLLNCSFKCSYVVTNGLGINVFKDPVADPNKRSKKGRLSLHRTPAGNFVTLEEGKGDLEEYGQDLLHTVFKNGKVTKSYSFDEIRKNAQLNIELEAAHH

Compound: NC(=O)c1ccc[n+]([C@@H]2O[C@H](COP(=O)([O-])OP(=O)(O)OC[C@H]3O[C@@H](n4cnc5c(N)ncnc54)[C@H](O)[C@@H]3O)[C@@H](O)[C@H]2O)c1 [NAD^+]
- NMN production LC-MS/MS assay with 250 μM NAD+ (feedback inhibition) [1]: SBI-797812 relieved NAMPT inhibition mediated by NAD^+ (Fig. 2e).

Compound: NC(=O)c1ccc[n+]([C@@H]2O[C@H](COP(=O)([O-])O)[C@@H](O)[C@H]2O)c1 [NMN]
- LC-MS/MS of the reversible reaction; suppresses pHisNAMPT in western blot and bl [2]: While the pHisNAMPT band was suppressed by NMN or PP, NAM or PRPP had no effect

Compound: CCOC(=O)c1ccc(NC(=O)NCc2ccncc2)cc1 [SBI-136892]
- dose-dependent protein thermal shift and stimulation of NMN production [3]: SBI-136892 (Fig. 1b), dose-dependently increased the NAMPT Tm (Supplementary Fig. 1a) and stimulated NAMPT-mediated NMN production

Compound: O=C(NCc1ccccn1)Nc1ccc(S(=O)(=O)N2CC3CCC(C2)O3)cc1 [SBI-796950]
- NMN production fluorescence assay at 2 μM compound (slight inhibition) [4]: The SBI-797812 isomer with the 2-pyridyl group, SBI-796950 (Fig. 1b), slightly inhibited NMN production (Fig. 1c).

Compound: O=C(NCc1ccncc1)Nc1ccc(S(=O)(=O)N2CC3CCC(C2)O3)cc1 [SBI-797812]
- EC50 [5]: 0.37 ± 0.06 µM
